# Reference: patent publication US7148380B2, “Bio-energy muscle relaxants” (priority 2000, dated 2006)
# Several values for one entry are separate records, joined by “and”; a condition that tells them apart may be missing. Equal values may be shown once. Read-outs that look alike come from different tables or passages of the source.
# Legend:
# [1] = system: hypertension induced by aramine; experiment: Aramine-induced hypertension, curative test; assay type: in vivo, SD rats
# Procedure: (§1) Eighteen (18) SD rats (provided by the Center of Experimental Animals, First Military Medical University, Guang Zhou, China, Certificate No. 99A046) with body weight of 200–250 g were used for the study. The animal was anesthetized with urethane (1.4 g/kg, I.P.), then the main cervical artery was exposed and cannulated, blood pressure was monitored during the experiment. After a 30-minute stabilization period after the operation, normal blood pressure curves were recorded.
# [2] = system: convulsion induced by strychnine; assay type: in vivo, NIH mice; conditions: for Convulsion / The latent period / Convulsion-Death time / Death: n=12; for The latent period / Convulsion-Death time: mean±SD; for Convulsion-Death time: P<0.01 vs control
# Procedure: To investigate the effect, 36 mice (provided by the Center of Experimental Animals, Provincial Health Department, Guangdong, China, Certificate No. 99A030) were used for the study, the animals were grouped as placebo, preventing, and treatment groups. Muscle convulsion was induced with injection of strychnine (1.5 mg/kg I.P., injection product of 2 mg/ml, He Feng Pharmaceutical Co., Shanghai, China, Lot. No. 990701), the beginning and lasting time of the convulsion were recorded.
# Half male and female healthy NIH mice with body weight of 20±2 g were selected for the study. The animals were randomly divided into three groups as protective, curative, and control (saline). […] In the control group, saline (20 ml/kg, I.P.) was administered 0.5 h before the strychnine. Immediately following the injection of strychnine, convulsion latent period and the time from beginning of convulsion to death of the animal were recorded. […] (see Table 7).
# [3] = system: drug-induced asthma in guinea pig; experiment: Asthmatic latent period / drug-induced asthma in guinea pig (acetylcholine + histamine inhalation); assay type: in vivo
# Procedure: Sensitive animals were chosen by aerosolized inhalation of asthma-inducing agents—a mixed solution of 2% acetylcholine with 0.1% histamine for 15 sec., inducing an asthmatic attack with severe difficulty in respiration and finally resulting in the animal body turned down. The time from beginning of the inhalation to animal turned down was recorded as an index named “turned down time” or asthmatic latent period. Those animals with turned down time less than 120 s. were selected for the study next day. […] Then the latent period was recorded for each of the animals.
# (1) Screening animals: animal was put in a glass container, a mixed solution of 2% acetylcholine and 0.1% histamine was nebulized with a pressure of 400 mmHg and inhaled by the animals for 15 sec. Following the end of the inhalation, the time between beginning of the inhalation and the animal turned down due to bronchial spasm and dyspnea was recorded as asthmatic latent period. Those animals with a latent period beyond 120 s. were excluded, and those with a latent period less than 120 s were selected for study the next day.
# (4) Measuring: Repeat the inhalation at 30 min, 4 h, and 24 h after administration of the drugs respectively. Asthmatic latent period was recorded, 6 minutes were taken as the maximum, and values beyond 6 min were counted as 6 min.
# (5) Data analysis: Values were expressed as mean±sd, and paired for “t” and chi-square tests. Significance was considered to be established when p<0.05.
# [4] = system: isolated colon tissues from guinea pigs; experiment: Isolated colon smooth muscle contraction induced by BaCl2; set-up: species or system guinea pig
# Description: To investigate this effect, 14 guinea pigs (provided by the Center of Experimental Animals, First Military Medical University, Guangzhou, China, certificate No. 99A047) with body weight of 240±20 g were used for the study. Following sacrifice of the animal by cervical dislocation, the colon was isolated within Botting solution, a segment of the colon in 2 cm length was taken to mount on the equipment—one end connected to a force transducer, the other end fixed at the bottom of the organ water-bath (DC-001 Organ Bath, made in Nanjin, China) containing oxygenated nutritious solution at 37° C.
# Group “t” test was then made. Significance is considered to be established when P<0.05
# The animals were divided as test group and control (placebo) group.
# Where Fc is force of the smooth muscle contraction.
# Paired group “t” test was made to compare contraction force after BDM and distilled water to determine whether there is a significant difference between the two groups.
# [5] = system: hypertension induced by aramine; experiment: Aramine-induced hypertension, preventive test; assay type: in vivo, SD rats
# Procedure: as §1
# [6] = BDM 0.2 M, 10 ml/kg, I.P. after aramine
# [7] = control fluctuating within ±15 mmHg
# [8] = curative: BDM immediately after strychnine
# [9] = preventive: BDM 0.5 h prior to strychnine
# [10] = 10 ml/kg I.P. (BDM 0.2M, aminophylline 1.25%), mean±sd
compound,measurement,setting,value
"CC(=O)C(C)=NO [BDM, 2,3-butanedione monoxime]",Diastolic pressure 2 min. after BDM administration,[1]; [6],73.8 ± 4.9^★★ mmHg
same,Diastolic pressure 5 min. after BDM administration,[1]; [6],77.0 ± 9.1^★★ mmHg
same,Diastolic pressure 10 min. after BDM administration,[1]; [6],76.3 ± 5.2^★★ mmHg
same,Systolic pressure 2 min. after BDM administration,[1]; [6],123.7 ± 6.0^★★ mmHg
same,Systolic pressure 5 min. after BDM administration,[1]; [6],128.3 ± 5.2^★★ mmHg
same,Systolic pressure 10 min. after BDM administration,[1]; [6],130.5 ± 4.2^★★ mmHg
same,"Diastolic pressure, Blood Pressure before","[1]; baseline, mean±SD, n=6–7",74.0 ± 15.4 mmHg
same,"Systolic pressure, Blood Pressure before","[1]; baseline, mean±SD, n=6–7",123.3 ± 10.1 mmHg
same,Diastolic pressure 2 min. after aramin administration,[1]; before BDM,121.5 ± 5.5 mmHg
same,Diastolic pressure 5 min. after aramin administration,[1]; before BDM,122.2 ± 5.1 mmHg
same,Diastolic pressure 10 min. after aramin administration,[1]; before BDM,117.7 ± 9.5 mmHg
same,Systolic pressure 2 min. after aramin administration,[1]; before BDM,182.7 ± 6.0 mmHg
same,Systolic pressure 5 min. after aramin administration,[1]; before BDM,183.5 ± 5.5 mmHg
same,Systolic pressure 10 min. after aramin administration,[1]; before BDM,181.8 ± 6.4 mmHg
same,Average decrease of diastolic blood pressure after BDM administration,[1]; [7],42 mmHg
same,Average decrease of systolic blood pressure after BDM administration,[1]; [7],54 mmHg
same,Convulsion,"[2]; curative: BDM 0.2M, 20 ml/kg I.P. immediately after strychnine 1.5 mg/kg I.P.",100%
same,The latent period,[2]; [8],134.2 ± 31.5 s
same,Convulsion-Death time,[2]; [8],538.3±169.3 s and 538.3 ± 169.3^★★ s
same,Death,[2]; [8],100%
same,Behaviour of the animals after administration of BDM,"[2]; mice, BDM 0.2M, 20 ml/kg, I.P.","reducing activities, difficulties in action and toddling"
same,Convulsion,"[2]; preventive: BDM 0.2M, 20 ml/kg I.P. 0.5 h prior to strychnine 1.5 mg/kg I.P.",100%
same,The latent period,[2]; [9],183.8 ± 32.6 s
same,Convulsion-Death time,[2]; [9],496.3±285.3 s and 496.3 ± 285.3^★★ s
same,Death,[2]; [9],100%
same,"Asthamatic Latent Period, 4 hours after administration",[3]; [10],99.2 ± 42.1 s
same,"Asthamatic Latent Period, 24 hours after administration",[3]; [10],81.8 ± 11.0 s
same,Incidence of asthmatic spasm,"[3]; 30 min after administration, down from 100%, not significant",60%
same,"Asthamatic Latent Period, before administration","[3]; baseline before drug, 10 ml/kg I.P. (BDM 0.2M, aminophylline 1.25%), mean±sd",70.4 ± 21.1 s
same,Effect on the latent period,[3]; four and 24 h after administration,no significant effect
same,"Contraction force, After","[4]; BaCl2 0.67 g/L, 10 min after BDM 0.2M, 20 ml/L nutritious sol., single preparations",1.70 g and 1.35 g and 1.45 g and 1.75 g and 2.20 g
same,"Contraction force, Before","[4]; BaCl2 0.67 g/L, before BDM, single colon preparations of the test group",2.35 g and 2.30 g and 2.45 g and 2.70 g and 2.90 g
same,Contraction Rate,"[4]; force after / before BDM 0.2M, 20 ml/L, single preparations",72.3% and 58.7% and 61.7% and 76.1% and 69.4% and 64.8% and 75.9%
same,Diastolic pressure 2 minutes after BDM administration,"[5]; BDM 0.2 M, 10 ml/kg, I.P.",39.7 ± 6.4^★★ mmHg
same,Diastolic pressure 5 minutes after BDM administration,"[5]; BDM 0.2 M, 10 ml/kg, I.P.",39.0 ± 8.7^★★ mmHg
same,Diastolic pressure 10 minutes after BDM administration,"[5]; BDM 0.2 M, 10 ml/kg, I.P.",43.0 ± 8.5^★★ mmHg
same,Systolic pressure 2 minutes after BDM administration,"[5]; BDM 0.2 M, 10 ml/kg, I.P.",88.0 ± 5.2^★★ mmHg
same,Systolic pressure 5 minutes after BDM administration,"[5]; BDM 0.2 M, 10 ml/kg, I.P.",84.0 ± 6.7^★★ mmHg
same,Systolic pressure 10 minutes after BDM administration,"[5]; BDM 0.2 M, 10 ml/kg, I.P.",88.2 ± 7.7^★★ mmHg
same,Diastolic pressure 2 minutes after aramine administration,[5]; BDM given before aramine,76.2 ± 21.5^★★ mmHg
same,Diastolic pressure 5 minutes after aramine administration,[5]; BDM given before aramine,76.5 ± 11.9^★★ mmHg
same,Diastolic pressure 10 minutes after aramine administration,[5]; BDM given before aramine,77.0 ± 22.4^★★ mmHg
same,Systolic pressure 5 minutes after aramine administration,[5]; BDM given before aramine,127.5 ± 16.1^★★ mmHg
same,Systolic pressure 10 minutes after aramine administration,[5]; BDM given before aramine,127.7 ± 17.3^★★ mmHg
same,Systolic pressure 2 minutes after aramine administration,"[5]; BDM given before aramine 30 μg/ml, 0.4 ml/min I.V.",126.3 ± 16.1^★★ mmHg
same,"Diastolic pressure, Blood Pressure before","[5]; baseline, mean±SD, n=6–7",68.7 ± 8.8 mmHg
same,"Systolic pressure, Blood Pressure before","[5]; baseline, mean±SD, n=6–7",117.3 ± 3.2 mmHg
same,Diastolic blood pressure following aramine administration in BDM group,[5]; control about 120,~75 mmHg
same,Systolic blood pressure following aramine administration in BDM group,[5]; control about 185,about 125 mmHg
same,Diastolic blood pressure after administration of BDM,"[5]; down from 68, approximately",~40 mmHg
same,Systolic blood pressure after administration of BDM,"[5]; down from 117, approximately",~84 mmHg
